Tested on: 885512-296-R-J2-PDC complex spheroid growth, % test/control
Test: Anticancer human tumor 885512-296-R-J2-PDC patient-derived breast carcinoma cell line growth inhibition [AhR]
Conditions: for IC50: curve of first compound; for viability, T/C: stronger effect = lower value
How it was run: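 Complex tumor spheroids co-cultured with HUVEC and human MSC stroma; AhR antagonists tested in combination with standard-of-care and investigational agents. Top concentration at or near clinical Cmax (else 10 microM), half-log dilutions; growth expressed as percent test/control.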
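Also: spheroids exposed to compounds for seven days.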

CC[C@@]1(O)C(=O)OCc2c1cc1n(c2=O)Cc2cc3c(CN(C)C)c(O)ccc3nc2-1 + CC(CO)NC(=O)c1cc(-c2ccc(Cl)cc2)nn(-c2cnn(C)c2)c1=O gave an IC50 (second compound 0.1 µM) of 11.4 nM, an IC50 (second compound 0.316 µM) of 11.7 nM and an IC50 (second compound 1 µM) of 10.7 nM. It also gave an IC50 (second compound 3.16 µM) of 7.84 nM, an IC50 (second compound 10 µM) of 8.12 nM and a viability, T/C (second compound 0.1 µM, first compound 0.000316 µM) of 104%. For the same molecule, the viability, T/C (second compound 0.1 µM, first compound 0.001 µM) was 107%, the viability, T/C (second compound 0.1 µM, first compound 0.00316 µM) was 87.9% and the viability, T/C (second compound 0.1 µM, first compound 0.01 µM) was 58.3%. The viability, T/C (second compound 0.1 µM, first compound 0.0316 µM) was 8.77%, the viability, T/C (second compound 0.1 µM, first compound 0.1 µM) was 4.56% and the viability, T/C (second compound 0.316 µM, first compound 0.000316 µM) was 92.6%. For the same molecule, the viability, T/C (second compound 0.316 µM, first compound 0.001 µM) was 94.5%, the viability, T/C (second compound 0.316 µM, first compound 0.00316 µM) was 87.9% and the viability, T/C (second compound 0.316 µM, first compound 0.01 µM) was 57%. It also gave a viability, T/C (second compound 0.316 µM, first compound 0.0316 µM) of 7.83%, a viability, T/C (second compound 0.316 µM, first compound 0.1 µM) of 5.61% and a viability, T/C (second compound 1 µM, first compound 0.000316 µM) of 110%. It also gave a viability, T/C (second compound 1 µM, first compound 0.001 µM) of 107%, a viability, T/C (second compound 1 µM, first compound 0.00316 µM) of 92.8% and a viability, T/C (second compound 1 µM, first compound 0.01 µM) of 54.5%. It also gave a viability, T/C (second compound 1 µM, first compound 0.0316 µM) of 10%, a viability, T/C (second compound 1 µM, first compound 0.1 µM) of 6.33% and a viability, T/C (second compound 3.16 µM, first compound 0.000316 µM) of 117%. The viability, T/C (second compound 3.16 µM, first compound 0.001 µM) was 106%, the viability, T/C (second compound 3.16 µM, first compound 0.00316 µM) was 81.4% and the viability, T/C (second compound 3.16 µM, first compound 0.01 µM) was 43%. The viability, T/C (second compound 3.16 µM, first compound 0.0316 µM) was 10.9%, the viability, T/C (second compound 3.16 µM, first compound 0.1 µM) was 4.27% and the viability, T/C (second compound 10 µM, first compound 0.000316 µM) was 89.4%. For the same molecule, the viability, T/C (second compound 10 µM, first compound 0.001 µM) was 93%, the viability, T/C (second compound 10 µM, first compound 0.00316 µM) was 75.1% and the viability, T/C (second compound 10 µM, first compound 0.01 µM) was 46.2%. The viability, T/C (second compound 10 µM, first compound 0.0316 µM) was 10% and the viability, T/C (second compound 10 µM, first compound 0.1 µM) was 7.97%.

Molecule CCc1c2c(nc3ccc(O)cc13)-c1cc3c(c(=O)n1C2)COC(=O)[C@]3(O)CC + Cc1cncc(-c2nc(NCCc3c[nH]c4ccccc34)c3ncn(C(C)C)c3n2)c1 has an IC50 (second compound 0.1 µM) of less than 0.949 nM, an IC50 (second compound 0.316 µM) of less than 0.949 nM and an IC50 (second compound 1 µM) of less than 0.949 nM. The IC50 (second compound 3.16 µM) was less than 0.949 nM, the IC50 (second compound 10 µM) was less than 0.949 nM and the viability, T/C (second compound 0.1 µM, first compound 0.000949 µM) was 17.1%. The viability, T/C (second compound 0.1 µM, first compound 0.003 µM) was 6.62%, the viability, T/C (second compound 0.1 µM, first compound 0.00949 µM) was 6.47% and the viability, T/C (second compound 0.1 µM, first compound 0.03 µM) was 4.7%. The viability, T/C (second compound 0.1 µM, first compound 0.0949 µM) was 3.05%, the viability, T/C (second compound 0.1 µM, first compound 0.3 µM) was 1.25% and the viability, T/C (second compound 0.316 µM, first compound 0.000949 µM) was 13.4%. It also gave a viability, T/C (second compound 0.316 µM, first compound 0.003 µM) of 8.06%, a viability, T/C (second compound 0.316 µM, first compound 0.00949 µM) of 6.14% and a viability, T/C (second compound 0.316 µM, first compound 0.03 µM) of 3.21%. The viability, T/C (second compound 0.316 µM, first compound 0.0949 µM) was 2.78%, the viability, T/C (second compound 0.316 µM, first compound 0.3 µM) was 2.11% and the viability, T/C (second compound 1 µM, first compound 0.000949 µM) was 13.7%. It also gave a viability, T/C (second compound 1 µM, first compound 0.003 µM) of 10.2%, a viability, T/C (second compound 1 µM, first compound 0.00949 µM) of 6.69% and a viability, T/C (second compound 1 µM, first compound 0.03 µM) of 3.66%. It also gave a viability, T/C (second compound 1 µM, first compound 0.0949 µM) of 3.03%, a viability, T/C (second compound 1 µM, first compound 0.3 µM) of 1.71% and a viability, T/C (second compound 3.16 µM, first compound 0.000949 µM) of 14.3%. It also gave a viability, T/C (second compound 3.16 µM, first compound 0.003 µM) of 9.78%, a viability, T/C (second compound 3.16 µM, first compound 0.00949 µM) of 8.43% and a viability, T/C (second compound 3.16 µM, first compound 0.03 µM) of 4.39%. It also gave a viability, T/C (second compound 3.16 µM, first compound 0.0949 µM) of 2.48%, a viability, T/C (second compound 3.16 µM, first compound 0.3 µM) of 2.2% and a viability, T/C (second compound 10 µM, first compound 0.000949 µM) of 15.4%. It also gave a viability, T/C (second compound 10 µM, first compound 0.003 µM) of 10.6%, a viability, T/C (second compound 10 µM, first compound 0.00949 µM) of 5.11% and a viability, T/C (second compound 10 µM, first compound 0.03 µM) of 2.46%. It also gave a viability, T/C (second compound 10 µM, first compound 0.0949 µM) of 1.12% and a viability, T/C (second compound 10 µM, first compound 0.3 µM) of 0.78%.

Source: PubChem BioAssay AID1919006 (Molecular Pharmacology Branch, DTP, NCI, 2023)
